Data on 1 molecule can be found in article PMC6155437 (Molecules : A Journal of Synthetic Chemistry and Natural …, 2017).

What all share (assay type): in vitro ADME
The target of one series is CYP3A4 (Homo sapiens, UniProt P08684). Nature of the series: CYP3A4 midazolam 1′-hydroxylase inhibition in human liver microsomes. Also on record: tissue Corning Life Sciences; host or cells: pooled human liver microsomes (150 donors). How it is done:
(§1) After a 3-min pre-incubation at 37 °C, the reactions were initiated by addition of NADPH and incubation proceeded for 15 min at 37 °C in a shaking water bath. […] The incubation mixtures were centrifuged (13,000× g, 4 min, 4 °C). All assays were performed in triplicate and mean values were used in calculations.
(§2) Each reaction was initiated by adding the seven-CYP probe substrate cocktail.
The reactions were initiated by addition of NADPH at 37 °C and stopped after 10 min by placing the incubation tubes on ice and adding 100 μL of ice-cold methanol containing an internal standard (d9-1-hydroxybufuralol). The incubation mixtures were centrifuged (13,000× g, 4 min, 4 °C) and then 50 μL of the supernatant was diluted with 50 μL of water. Aliquots (5 μL) of the diluted supernatants were analyzed by LC-MS/MS.
The metabolites formed from CYP substrates were quantified simultaneously by a LC-MS/MS method described previously. The ESI source settings in positive-ion mode for metabolite ionization were: capillary voltage, 4200 V; vaporizer temperature, 350 °C; capillary temperature, 330 °C; sheath gas pressure, 35 psi; and auxiliary gas pressure, 15 psi. Quantification was performed by selected reaction monitoring (SRM) of the [M + H]^+ ion and the related product ion for each metabolite: acetaminophen, 152.1 > 110.3; N-desethylamodiaquine, 328.1 > 283.0; 7-hydroxycoumarin, 163.0 > 107.2; 4-hydroxybupropion, 256.1 > 238.0; 4′-hydroxydiclofenac, 312.0 > 231.1; 4′-hydroxy-mephenytoin; 235.1 > 150.1; 1′-hydroxybufuralol, 278.1 > 186.1; 1′-hydroxymidazolam, 341.9 > 324.0; ^13C2,^15N-acetaminophen 155.1 > 111.2; and d9-1′-hydroxybufuralol, 287.2 > 187.0. Analytical data were processed using Xcalibur software (version 2.1, Thermo Scientific).
(§3) The apparent kinetic parameters for inhibitory potential (Ki and kinact values) and inhibition mode were estimated from the fitted curves using the Enzyme Kinetics program (ver. 1.1; Systat Software Inc., San Jose, CA, USA).
In general terms: Liver microsomes are vesicles of endoplasmic reticulum, rich in cytochrome P450 enzymes.

A further series deals with T1, CYP2A6 (Homo sapiens, UniProt P11509).
T1 construct: pooled human liver microsomes (0.2 mg/mL); tissue Corning Life Sciences; host or cells: pooled human liver microsomes (150 donors)
T1 sequence (P11509 1-494): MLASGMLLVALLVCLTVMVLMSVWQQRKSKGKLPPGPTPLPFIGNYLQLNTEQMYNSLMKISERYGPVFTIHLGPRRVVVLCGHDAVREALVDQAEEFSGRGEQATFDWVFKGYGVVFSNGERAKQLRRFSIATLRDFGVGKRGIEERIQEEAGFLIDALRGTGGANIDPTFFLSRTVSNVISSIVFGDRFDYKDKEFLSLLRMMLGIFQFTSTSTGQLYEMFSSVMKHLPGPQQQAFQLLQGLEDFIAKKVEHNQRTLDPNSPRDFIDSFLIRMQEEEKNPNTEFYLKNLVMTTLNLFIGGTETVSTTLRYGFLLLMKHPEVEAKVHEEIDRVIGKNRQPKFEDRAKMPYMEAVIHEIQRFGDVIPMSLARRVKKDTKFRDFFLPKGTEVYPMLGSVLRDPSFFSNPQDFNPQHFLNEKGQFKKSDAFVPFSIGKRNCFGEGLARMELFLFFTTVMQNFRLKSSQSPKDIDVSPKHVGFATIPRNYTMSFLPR
Nature of the series: CYP2A6 coumarin 7-hydroxylase inhibition in pooled human liver microsomes (substrate cocktail, LC-MS/MS). The conditions noted are these: at 50 µM. How it is done: as §1, §2
(§4) The metabolites formed from CYP substrates were quantified simultaneously by a LC-MS/MS method described previously. The ESI source settings in positive-ion mode for metabolite ionization were: capillary voltage, 4200 V; vaporizer temperature, 350 °C; capillary temperature, 330 °C; sheath gas pressure, 35 psi; and auxiliary gas pressure, 15 psi. […] Analytical data were processed using Xcalibur software (version 2.1, Thermo Scientific).
as §3

The target in another series is T2, CYP2B6 (Homo sapiens, UniProt P20813).
T2 construct: pooled human liver microsomes (0.2 mg/mL); tissue Corning Life Sciences; host or cells: pooled human liver microsomes (150 donors)
T2 sequence (P20813 1-491): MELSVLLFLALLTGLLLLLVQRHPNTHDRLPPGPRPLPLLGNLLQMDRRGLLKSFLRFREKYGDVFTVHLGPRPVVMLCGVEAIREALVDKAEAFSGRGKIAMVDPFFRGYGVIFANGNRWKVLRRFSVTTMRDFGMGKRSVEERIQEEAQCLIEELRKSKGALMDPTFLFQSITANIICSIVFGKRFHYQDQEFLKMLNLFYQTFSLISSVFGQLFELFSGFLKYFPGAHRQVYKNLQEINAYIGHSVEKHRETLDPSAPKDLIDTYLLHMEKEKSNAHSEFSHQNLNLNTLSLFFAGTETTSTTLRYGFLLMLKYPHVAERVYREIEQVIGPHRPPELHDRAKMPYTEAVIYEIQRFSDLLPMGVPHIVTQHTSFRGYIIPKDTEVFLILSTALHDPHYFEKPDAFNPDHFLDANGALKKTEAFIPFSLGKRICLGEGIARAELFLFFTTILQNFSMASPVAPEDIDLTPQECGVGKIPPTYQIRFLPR
Nature of the series: CYP2B6 bupropion hydroxylase inhibition in ultrapool human liver microsomes. The conditions noted are these: at 50 µM. As to the method:
All incubations were performed in triplicate, and average values were used.
as §4, §3

Entries after “also recorded” stand apart in the source; their conditions may differ.

Sequence of CYP3A4 (P08684 whole entry): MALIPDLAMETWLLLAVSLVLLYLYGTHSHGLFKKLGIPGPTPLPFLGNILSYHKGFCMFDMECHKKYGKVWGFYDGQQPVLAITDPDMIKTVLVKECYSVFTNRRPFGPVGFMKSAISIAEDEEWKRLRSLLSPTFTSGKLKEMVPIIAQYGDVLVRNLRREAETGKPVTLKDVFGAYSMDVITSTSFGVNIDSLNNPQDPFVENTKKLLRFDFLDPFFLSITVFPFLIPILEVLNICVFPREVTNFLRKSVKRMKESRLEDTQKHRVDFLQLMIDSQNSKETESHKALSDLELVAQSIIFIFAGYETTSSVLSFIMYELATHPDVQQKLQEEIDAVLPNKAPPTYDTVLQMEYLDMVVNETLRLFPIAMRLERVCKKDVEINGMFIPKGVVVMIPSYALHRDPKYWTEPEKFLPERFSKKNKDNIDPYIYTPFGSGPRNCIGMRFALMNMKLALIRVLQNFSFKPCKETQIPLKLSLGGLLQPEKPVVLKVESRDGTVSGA

For the molecule `O=C(c1cccc2ccccc12)c1cn(CCCCCF)c2ccccc12` [AM-2201, 1-(5-fluoropentyl-1H-indol-3-yl)-(naphthalene-1-yl)methanone], affinity at CYP3A4 was put at a Ki of 4 µM. Also, the “Inhibition Mode” value on CYP3A4 (CYP3A4 midazolam 1′-hydroxylation) is on record as “competitively inhibited; also recorded: competitive”. Further, the IC50 (as a rule, the concentration that gives 50% inhibition) at CYP3A4 (IC50 (μM) No Preincubation, Midazolam 1′-hydroxylase, CYP3A4, human liver microsomes, 2.5 μM midazolam) amounted to 6.9 µM; against CYP3A4 (IC50 (μM) With Preincubation, Midazolam 1′-hydroxylase, CYP3A4, 30 min preincubation with NADPH) it was 3.8 µM; at CYP3A4 (IC50, CYP3A4-catalyzed midazolam 1′-hydroxylation, abstract) it was 4 µM. The “inhibition of CYP2A6-mediated coumarin 7-hydroxylation” value on CYP2A6 is reported as “negligibly inhibited”. The “inhibition of CYP2B6-mediated bupropion hydroxylation” value against CYP2B6 was “negligibly inhibited”.
